Reference: US20210386665A1, “INHALATION POWDER MEDICINE, EVALUATION METHOD THEREOF, AND USE THEREOF” (MEIJO UNIVERSITY EDUCATIONAL FOUNDATION, priority 2018, published 2021)

Experiment: Anti-hygroscopic and hygroscopic property by dynamic vapor sorption (DVS)
Format: physicochemical
Settings: raw powders; DVS 37° C., 50 to 95% RH
Description: For each SFD preparation prepared in Example 1 and each raw powder (Leu, Man, Tre, FlNa) in compositions, using a Dynamic Vapor Sorption measuring instrument (DVS: Dynamic Vapor Sorption; DVS advantage, Surface Measurement Systems), anti-hygroscopic property and hygroscopic growth from inhalation to the respiratory tract and deep lungs in high humidity were evaluated.
By a DVS, the mass change of a sample filled on one side of the balance-type measuring unit due to the adsorption and desorption of water in a set temperature and humidity environment can be monitored on a second scale. Regarding the setting of conditions for moisture absorption growth evaluation, to reproduce the temperature and humidity environment changes until the powder fine particles reach the deep lungs, the environment before inhalation was set to “temperature: 37° C., relative humidity (RH): 50% (absolute humidity: […])” and the lung environment after inhalation was set to “temperature: 37° C., 95% RH (absolute humidity: 41.62 g/m^3)”.

For CC(C)C[C@H](N)C(=O)O [Leu, L-leucine], the mass change rate was “about 0.08%”.
In the case of OC[C@@H](O)[C@@H](O)[C@H](O)[C@H](O)CO [Man, D-(−)-mannitol], the mass change rate was ~0.29%.
OC[C@H]1O[C@H](O[C@H]2O[C@H](CO)[C@@H](O)[C@H](O)[C@H]2O)[C@H](O)[C@@H](O)[C@@H]1O [Tre, D-(+)-trehalose] gave a mass change rate of ~22%.
